Key:
Mus musculus [1] = species: Mus musculus; assay: Skin irritant activity in NMRI mouse ear assessed as irritant dose 50 per ear after 24 hrs; type: ADME, organism-based; conditions: in vivo
Mus musculus [2] = species: Mus musculus; assay: Skin irritant activity in NMRI mouse ear assessed as irritancy after 24 hrs; type: ADME, organism-based; conditions: in vivo
Mus musculus [3] = species: Mus musculus; assay: Tumor promoting activity of DMBA-initiated tumor in back skin of NMRI mouse assessed as average tumor yeild at 20 nmol twice weekly measured after 12 weeks; type: organism-based, Zone of skin; conditions: in vivo, 2016 h
Mus musculus [4] = species: Mus musculus; assay: Tumor promoting activity of DMBA-initiated tumor in back skin of NMRI mouse assessed as tumor rate at 20 nmol twice weekly measured after 12 weeks; type: organism-based, Zone of skin; conditions: in vivo, 2016 h
Mus musculus [5] = species: Mus musculus; assay: Tumor promoting activity of DMBA-initiated tumor in back skin of NMRI mouse assessed as average tumor yeild at 20 nmol twice weekly measured after 24 weeks; type: organism-based, Zone of skin; conditions: in vivo, 4032 h
Mus musculus [6] = species: Mus musculus; assay: Tumor promoting activity of DMBA-initiated tumor in back skin of NMRI mouse assessed as tumor rate at 20 nmol twice weekly measured after 24 weeks; type: organism-based, Zone of skin; conditions: in vivo, 4032 h
[7] = Tumor promoting activity of DMBA-initiated tumor in back skin of NMRI mouse assessed as survival rate at 20 nmol twice weekly measured after 24 weeks; type: organism-based, Zone of skin; conditions: in vivo, topical or ocular
[8] = Tumor promoting activity of DMBA-initiated tumor in back skin of NMRI mouse assessed as survival rate at 5 nmol twice weekly measured after 24 weeks; type: organism-based, Zone of skin; conditions: in vivo, topical or ocular
Mus musculus [9] = species: Mus musculus; assay: Tumor promoting activity of DMBA-initiated tumor in back skin of NMRI mouse assessed as tumor rate at 5 nmol twice weekly measured after 12 weeks; type: organism-based, Zone of skin; conditions: in vivo, 2016 h
Mus musculus [10] = species: Mus musculus; assay: Tumor promoting activity of DMBA-initiated tumor in back skin of NMRI mouse assessed as average tumor yeild at 5 nmol twice weekly measured after 12 weeks; type: organism-based, Zone of skin; conditions: in vivo, 2016 h
Mus musculus [11] = species: Mus musculus; assay: Tumor promoting activity of DMBA-initiated tumor in back skin of NMRI mouse assessed as tumor rate at 5 nmol twice weekly measured after 24 weeks; type: organism-based, Zone of skin; conditions: in vivo, 4032 h
[12] = Tumor promoting activity of DMBA-initiated tumor in back skin of NMRI mouse assessed as survival rate at 2.5 nmol twice weekly measured after 24 weeks; type: organism-based, Zone of skin; conditions: in vivo, topical or ocular
Mus musculus [13] = species: Mus musculus; assay: Tumor promoting activity of DMBA-initiated tumor in back skin of NMRI mouse assessed as average tumor yeild at 5 nmol twice weekly measured after 24 weeks; type: organism-based, Zone of skin; conditions: in vivo, 4032 h
Mus musculus [14] = species: Mus musculus; assay: Tumor promoting activity of DMBA-initiated tumor in back skin of NMRI mouse assessed as tumor rate at 2.5 nmol twice weekly measured after 24 weeks; type: organism-based, Zone of skin; conditions: in vivo, 4032 h
Mus musculus [15] = species: Mus musculus; assay: Tumor promoting activity of DMBA-initiated tumor in back skin of NMRI mouse assessed as average tumor yeild at 2.5 nmol twice weekly measured after 24 weeks; type: ADME, organism-based, Zone of skin; conditions: in vivo, 4032 h
Mus musculus [16] = species: Mus musculus; assay: Tumor promoting activity of DMBA-initiated tumor in back skin of NMRI mouse assessed as average tumor yeild at 2.5 nmol twice weekly measured after 12 weeks; type: ADME, organism-based, Zone of skin; conditions: in vivo, 2016 h
Mus musculus [17] = species: Mus musculus; assay: Tumor promoting activity of DMBA-initiated tumor in back skin of NMRI mouse assessed as tumor rate at 2.5 nmol twice weekly measured after 12 weeks; type: organism-based, Zone of skin; conditions: in vivo, 2016 h
Mus musculus [18] = species: Mus musculus; assay: Tumor promoting activity of DMBA-initiated tumor in back skin of NMRI mouse assessed as tumor rate at 10 nmol twice weekly measured after 24 weeks; type: organism-based, Zone of skin; conditions: in vivo, 4032 h
Mus musculus [19] = species: Mus musculus; assay: Tumor promoting activity of DMBA-initiated tumor in back skin of NMRI mouse assessed as average tumor yeild at 10 nmol twice weekly measured after 24 weeks; type: organism-based, Zone of skin; conditions: in vivo, 4032 h
Mus musculus [20] = species: Mus musculus; assay: Tumor promoting activity of DMBA-initiated tumor in back skin of NMRI mouse assessed as average tumor yeild at 10 nmol twice weekly measured after 12 weeks; type: organism-based, Zone of skin; conditions: in vivo, 2016 h
[21] = Tumor promoting activity of DMBA-initiated tumor in back skin of NMRI mouse assessed as survival rate at 10 nmol twice weekly measured after 24 weeks; type: organism-based, Zone of skin; conditions: in vivo, topical or ocular
Mus musculus [22] = species: Mus musculus; assay: Tumor promoting activity of DMBA-initiated tumor in back skin of NMRI mouse assessed as tumor rate at 10 nmol twice weekly measured after 12 weeks; type: organism-based, Zone of skin; conditions: in vivo, 2016 h

## C=C(C)[C@]12C[C@@H](C)[C@@]34O[C@](/C=C\C=C\CCCCCCCCCC)(O[C@@H]1[C@@H]3[C@@H]1O[C@]1(CO)[C@@H](O)[C@]1(O)C(=O)C(C)=C[C@H]14)O2
Mus musculus [1]
  Activity: 0.02 nmol
Mus musculus [2]
  Activity: 50 nmol⁻¹

## C=C(C)[C@]12O[C@@]3(/C=C/C=C/C=C\CCC)O[C@@H]1[C@@H]1[C@@H]4O[C@]4(CO)[C@@H](O)[C@]4(O)C(=O)C(C)=C[C@H]4[C@@]1(O3)[C@H](C)[C@H]2OC(C)=O
Mus musculus [3]
  Activity: 0
Mus musculus [1]
  Activity: 1.1 nmol
Mus musculus [2]
  Activity: 0.91 nmol⁻¹
Mus musculus [4]
  Activity: 0%
Mus musculus [5]
  Activity: 0
Mus musculus [6]
  Activity: 0%
[7]
  survival at 4032 h: 100%

## C=C(C)[C@@]1(O)C[C@@H](C)[C@@]2(O)[C@H]([C@H]1OC(=O)/C=C/CCCCCCCCCCCCC)[C@@H]1O[C@]1(COC(=O)CCCCCCCCCCCCCCC)[C@@H](O)[C@]1(O)C(=O)C(C)=C[C@H]12
Mus musculus [1]
  Activity: 20 nmol
Mus musculus [2]
  Activity: 0.15 nmol⁻¹

## C=C(C)[C@@]1(OC(=O)/C=C/CCCCCCCCCCCCC)C[C@@H](C)[C@@]2(O)[C@H]([C@H]1O)[C@@H]1O[C@]1(CO)[C@@H](O)[C@]1(O)C(=O)C(C)=C[C@H]12
Mus musculus [1]
  Activity: 0.08 nmol
Mus musculus [2]
  Activity: 13 nmol⁻¹

## C=C(C)[C@]12C[C@@H](C)[C@@]34O[C@](/C=C\C=C\CCCCC)(O[C@@H]1[C@@H]3[C@@H]1O[C@]1(CO)[C@@H](O)[C@]1(O)C(=O)C(C)=C[C@H]14)O2
Mus musculus [1]
  Activity: 0.15 nmol
Mus musculus [2]
  Activity: 6.7 nmol⁻¹

## C=C(C)[C@]12O[C@@]34/C=C/CCCCCCCCCCC[C@H](C)[C@H]5[C@H](C)C(=O)[C@@]6(O)[C@H](O)[C@@]7(CO)O[C@H]7[C@@H]([C@H]1O3)[C@](O4)([C@H](C)[C@H]2OC(C)=O)[C@H]56
[8]
  survival at 4032 h: 99%
Mus musculus [9]
  Activity: 33%
Mus musculus [1]
  Activity: 0.01 nmol
Mus musculus [10]
  Activity: 0.33
Mus musculus [2]
  Activity: 100 nmol⁻¹
Mus musculus [11]
  Activity: 100%
[12]
  survival at 4032 h: 94%
Mus musculus [13]
  Activity: 4.4
Mus musculus [14]
  Activity: 27%
Mus musculus [15]
  Activity: 0.6
Mus musculus [16]
  Activity: 0
Mus musculus [17]
  Activity: 0%

## C=C(C)[C@@]1(O)C[C@@H](C)[C@@]2(O)[C@H]([C@H]1OC(=O)/C=C/CCCCCCCCCCCCC)[C@@H]1O[C@]1(CO)[C@@H](O)[C@]1(O)C(=O)C(C)=C[C@H]12
Mus musculus [1]
  Activity: 0.035 nmol
Mus musculus [2]
  Activity: 29 nmol⁻¹

## C=C(C)[C@]12C[C@@H](C)[C@@]34O[C@](/C=C/CCCCCCCCCCCCC)(O[C@@H]1[C@@H]3[C@@H]1O[C@]1(COC(=O)CCCCCCCCCCCCCCC)[C@@H](O)[C@]1(O)C(=O)C(C)=C[C@H]14)O2
Mus musculus [1]
  Activity: 0.16 nmol
Mus musculus [2]
  Activity: 6.3 nmol⁻¹

## C=C(C)[C@]12O[C@@]3(/C=C/C=C/CCCCCCCCC)O[C@@H]1[C@@H]1[C@@H]4O[C@]4(CO)[C@@H](O)[C@]4(O)C(=O)C(C)=C[C@H]4[C@@]1(O3)[C@H](C)[C@H]2OC(C)=O
Mus musculus [1]
  Activity: 0.03 nmol
Mus musculus [2]
  Activity: 33 nmol⁻¹

## C=C(C)[C@]12C[C@@H](C)[C@@]34O[C@](/C=C/CCCCCCCCCCCCC)(O[C@@H]1[C@@H]3[C@@H]1O[C@]1(CO)[C@@H](O)[C@]1(O)C(=O)C(C)=C[C@H]14)O2
[8]
  survival at 4032 h: 100%
Mus musculus [9]
  Activity: 6%
Mus musculus [1]
  Activity: 0.02 nmol
Mus musculus [10]
  Activity: 0.13
Mus musculus [18]
  Activity: 100%
Mus musculus [2]
  Activity: 50 nmol⁻¹
Mus musculus [19]
  Activity: 9.7
Mus musculus [11]
  Activity: 69%
Mus musculus [20]
  Activity: 4.7
[21]
  survival at 4032 h: 94%
Mus musculus [22]
  Activity: 94%
Mus musculus [13]
  Activity: 2.9

## C=C(C)[C@]12C[C@@H](C)[C@@]34O[C@](CCCCCCCCCCCCCCC)(O[C@@H]1[C@@H]3[C@@H]1O[C@]1(CO)[C@@H](O)[C@]1(O)C(=O)C(C)=C[C@H]14)O2
Mus musculus [1]
  Activity: 0.04 nmol
Mus musculus [2]
  Activity: 25 nmol⁻¹

## C=C(C)[C@]12O[C@@]3(/C=C/C=C/CCCCC)O[C@@H]1[C@@H]1[C@@H]4O[C@]4(CO)[C@@H](O)[C@]4(O)C(=O)C(C)=C[C@H]4[C@@]1(O3)[C@H](C)[C@H]2O
Mus musculus [1]
  Activity: 0.92 nmol
Mus musculus [2]
  Activity: 1.1 nmol⁻¹

## C=C(C)[C@@]12C[C@@H](C)[C@@]34O[C@@]5(/C=C/CCCCCCCCCCCC(C)[C@H]6[C@H](C)C(=O)[C@@](O)([C@H](O)[C@@]7(COC(=O)CCCCCCCCCCCCCCC)O[C@H]7[C@H]3[C@H]1O5)[C@@H]64)O2 (stereo partly specified)
Mus musculus [1]
  Activity: 0.019 nmol
Mus musculus [2]
  Activity: 53 nmol⁻¹

## C=C(C)[C@]12O[C@@]3(/C=C/C=C/CCCCC)O[C@@H]1[C@@H]1[C@@H]4O[C@]4(CO)[C@@H](O)[C@]4(O)C(=O)C(C)=C[C@H]4[C@@]1(O3)[C@H](C)[C@H]2OC(C)=O
Mus musculus [3]
  Activity: 0
Mus musculus [1]
  Activity: 0.27 nmol
Mus musculus [2]
  Activity: 3.7 nmol⁻¹
Mus musculus [4]
  Activity: 0%
Mus musculus [5]
  Activity: 0.36
Mus musculus [6]
  Activity: 14%
[7]
  survival at 4032 h: 88%

## C=C(C)[C@]12O[C@@]3(/C=C/C=C/C=C\CCC)O[C@@H]1[C@@H]1[C@@H]4O[C@]4(CO)[C@@H](O)[C@]4(O)C(=O)C(C)=C[C@H]4[C@@]1(O3)[C@H](C)[C@H]2O
Mus musculus [1]
  Activity: 0.81 nmol
Mus musculus [2]
  Activity: 1.2 nmol⁻¹

## C=C(C)[C@]12O[C@@]34/C=C/CCCCCCCCCCCC(C)[C@H]5[C@H](C)C(=O)[C@@]6(O)[C@H](O)[C@@]7(CO)O[C@H]7[C@@H]([C@H]1O3)[C@](O4)([C@H](C)[C@H]2O)[C@H]56 (stereo partly specified)
[8]
  survival at 4032 h: 94%
Mus musculus [9]
  Activity: 60%
Mus musculus [1]
  Activity: 0.0015 nmol
Mus musculus [10]
  Activity: 1.3
Mus musculus [2]
  Activity: 667 nmol⁻¹
Mus musculus [11]
  Activity: 86%
[12]
  survival at 4032 h: 100%
Mus musculus [13]
  Activity: 2.7
Mus musculus [14]
  Activity: 87%
Mus musculus [15]
  Activity: 2.9
Mus musculus [16]
  Activity: 0.33
Mus musculus [17]
  Activity: 6.7%

## C=C(C)[C@@]12C[C@@H](C)[C@@]34O[C@@]5(/C=C/CCCCCCCCCCCC(C)(O)[C@H]6[C@H](C)C(=O)[C@@](O)([C@H](O)[C@@]7(CO)O[C@H]7[C@H]3[C@H]1O5)[C@@H]64)O2 (stereo partly specified)
Mus musculus [1]
  Activity: 0.016 nmol
Mus musculus [2]
  Activity: 6 nmol⁻¹

## C=C(C)[C@]12C[C@@H](C)[C@@]34O[C@](CCCCCCCCC)(O[C@@H]1[C@@H]3[C@@H]1O[C@]1(CO)[C@@H](O)[C@]1(O)C(=O)C(C)=C[C@H]14)O2 [SIMPLEXIN]
Mus musculus [3]
  Activity: 0.6
Mus musculus [1]
  Activity: 0.013 nmol
Mus musculus [18]
  Activity: 54%
Mus musculus [2]
  Activity: 77 nmol⁻¹
Mus musculus [19]
  Activity: 1.7
Mus musculus [4]
  Activity: 20%
Mus musculus [5]
  Activity: 3
Mus musculus [20]
  Activity: 0.2
[21]
  survival at 4032 h: 93%
Mus musculus [22]
  Activity: 4%
Mus musculus [6]
  Activity: 71%
[7]
  survival at 4032 h: 100%

Source: ChEMBL document CHEMBL1151101, “Irritant principles of the mezereon family (Thymelaeaceae), V. New skin irritants and tumor promoters of the daphnane and 1 alpha-alkyldaphnane type from Synaptolepis kirkii and Synaptolepis retusa” (J Nat Prod, 1988)
